Laboratory results from patent EP0624368A2, “Use of a composition for stimulating the synthesis of glutathione in the manufacture of a medicament for the treatment of acquired immune deficiency syndrome” (priority 1993, dated 1994).

Columns and labels:
HIV-1 (strain IIIB) [1] = assay: MTT assay of protection against acute HIV infection in MT-2 cells; type: cell-based; conditions: 100 IU/well HIV; for OD readings at 540 nm (MTT assay): MT-2, Day 6 cultures
Text: (§1) Three cell culture systems were used in this study: H-9 cells; MT-2 cells; and normal human peripheral blood mononuclear cells (PBMC). H-9 cells were obtained from Advanced Biotechnology Inc. (ABI). MT-2 cells were obtained from Dr. J. Armstrong of the University of Pittsburgh. MT-2 cells are HTLV-I transformed human T lymphocytes and continuously produce HTLV-I virions. PBMC were obtained from healthy donors, purified by Ficol-Hypaque, and stimulated with PHA mitogen before being used in the efficacy studies. The initial stock of HIV-1 (strain IIIB) used in this study was obtained from ABI and the working stocks were produced.
(§2) Cells were collected, put into tissue culture plates and incubated with different concentrations of drugs in RPMI 1640 tissue culture medium for 20 minutes prior to HIV challenge. Infection was carried out by inoculating 20-100 HIV infectious units (IU)/well inoculum without removing the drugs. The untreated cells exposed to HIV challenge served as positive controls. The normal untreated uninfected cells served as negative controls.
Both the MTT assay and HIV p24 ELISA were used for evaluation of drug efficacies with MT-2 cells. The MTT assay is based upon the metabolic reduction of the MTT tetrazolium bromide dye in live cells. The OD readings (at 540 nm) obtained from the MTT assay are inversely correlated to the levels of cell mortality due to HIV infection or the cytotoxic effect of drugs. […] The HIV p24 antigen assay measures the level of HIV antigen present in the sample (i.e., culture supernatant).
(§3) When evaluating the efficacies of drugs in H-9 cells and PBMC systems, only HIV p24 assays were used. To calculate the ED₅₀ values, a second order linear regression was applied on the logarithm of the tested doses of different drugs against the OD readings obtained from either MTT assays or HIV p24 assays.

HIV-1 (strain IIIB) [2] = assay: HIV p24 antigen assay in H-9 cells (single and combination treatment); type: cell-based; conditions: H-9, 80 IU/well HIV
Text: as §1, §2, §3
(§4) Cells were collected, put into tissue culture plates and incubated with different combinations of drugs for 20 minutes prior to HIV infection in the combined treatment studies. Infection was carried out by inoculating 20-100 HIV IU/well inoculum without removing the drugs. The inocula were the same as the ones used in the single drug treatment to obtain the ED₅₀ values. Both MTT assays and HIV p24 antigen assays were used in evaluation of drug effects in MT-2 cells but only HIV p24 antigen assays were used for H-9 cells or PBMC.
(§5) Therefore, if the CI is less than 1, it indicates synergism among the tested drugs. Similarly, if the CI is equal to 1, the effects are additive, while a CI value greater than 1 is indicative of an antagonistic effect.

HIV-1 (strain IIIB) [3] = assay: HIV p24 antigen assay in PBMC (single and combination treatment); type: cell-based; conditions: 50 IU/well HIV
Text: as §1, §2, §3, §4, §5

mice [4] = assay: Hematology of terminal blood in mice treated with AZT with or without Procysteine diet; type: in vivo; conditions: both sexes, AZT 50 or 500 mg/kg body weight/day by gavage 14 days, 1.0% Procysteine® diet in combination groups, p<0.01
Experimental: On study day 17, the animals were anesthetized with methoxyflurane (in a bell jar). When deeply anesthetized, blood was obtained from the abdominal aorta and transferred for hematological analysis into tubes containing an K₂EDTA suspension.
The following assays were conducted. Leukocyte count Erythrocyte count Total hemoglobin concentration Hematocrit Mean corpuscular volume (MCV) Mean corpuscular hemoglobin (MCH) Mean corpuscular hemoglobin concentration Platelet count Reticulocyte count Differential leukocyte count

mice [5] = assay: Bone marrow aspirate count and stem cell colony assay in treated mice; type: in vivo
Experimental: Populations of bone marrow colony forming cells were evaluated. Bone marrow was collected and the stem cell assay conducted, as follows: one femur per mouse was cut at the distal and proximal ends. Using a syringe and 25 gauge needle, 5 mL of IMDM media was flushed through the femur into a collection tube (2.5 mL flushed into one end, then 2.5 ml into the other end). The tube was washed using Iscove's Modified Dulbecco's Media containing 20% fetal bovine serum and the cell concentration was adjusted to the desired count for the colony assay.
In triplicate, the marrow cells were put into a mixture of methylcellulose and plated into 35 mm diameter dishes. The dishes were incubated for approximately 2 weeks (37°C, 5% CO₂, 100% relative humidity) then manually scored under a microscope for myeloid, erythroid, and mixed colonies.

mice [6] = assay: Bone marrow smear evaluation in treated mice
[7] = 10⁴ nucleated cells cultured 14 days

## Cc1cn([C@H]2C[C@H](N=[N+]=[N-])[C@@H](CO)O2)c(=O)[nH]c1=O [AZT]
HIV-1 (strain IIIB) [1]; 0.0025 μM
  OD readings at 540 nm (MTT assay): 0.474
HIV-1 (strain IIIB) [1]; 0.01 μM
  OD readings at 540 nm (MTT assay): 0.641
HIV-1 (strain IIIB) [1]; 0.04 μM
  OD readings at 540 nm (MTT assay): 0.678
HIV-1 (strain IIIB) [1]; 0.16 μM
  OD readings at 540 nm (MTT assay): 0.688
HIV-1 (strain IIIB) [1]; 0.64 μM
  OD readings at 540 nm (MTT assay): 0.946
HIV-1 (strain IIIB) [1]; MT-2 cells, MTT assay
  Calculated single treatment ED50: 0.055 µM
HIV-1 (strain IIIB) [2]; 0.0025 μM
  OD readings at 450 nm (HIV p24 antigen): 4.133
HIV-1 (strain IIIB) [2]; 0.01 μM
  OD readings at 450 nm (HIV p24 antigen): 4.133
HIV-1 (strain IIIB) [2]; 0.04 μM
  OD readings at 450 nm (HIV p24 antigen): 4.133
HIV-1 (strain IIIB) [2]; 0.16 μM
  OD readings at 450 nm (HIV p24 antigen): 3.815
HIV-1 (strain IIIB) [2]; 0.64 μM
  OD readings at 450 nm (HIV p24 antigen): 0.358
HIV-1 (strain IIIB) [3]; 0.0025 μM
  OD readings at 450 nm (HIV p24 antigen): 3.405
HIV-1 (strain IIIB) [3]; 0.01 μM
  OD readings at 450 nm (HIV p24 antigen): 2.978
HIV-1 (strain IIIB) [3]; 0.04 μM
  OD readings at 450 nm (HIV p24 antigen): 0.155
HIV-1 (strain IIIB) [3]; 0.16 μM
  OD readings at 450 nm (HIV p24 antigen): 0.163
HIV-1 (strain IIIB) [3]; 0.64 μM
  OD readings at 450 nm (HIV p24 antigen): 0.204
HIV-1 (strain IIIB) [3]; p24 assay
  Calculated single treatment ED50: 0.021 µM
Mice [4]
  hematological effects in terminal blood (hemoglobin, hematocrit, erythrocyte counts decreased; MCV, MCH increased): Anemia
Mice [5]; [7]
  burst forming units-erythroid for marrow cultures: No group differences
  total colonies and colony forming units-granulocyte/macrophage: significant induction
Mice [5]; AZT 50 or 500 mg/kg body weight/day, compared to controls
  nucleated cells in bone marrow aspirates: significant reduction
Mice [6]; AZT 50 or 500 mg/kg body weight/day, 1.0% Procysteine® diet in combination groups
  total count of erythroid series cells in bone marrow smears: reduced total count
Mice [6]; AZT-treated
  metarubricytes (nonproliferating) in bone marrow smears: marked reduction
  rubriblasts in bone marrow smears: mild reduction
Mice [6]; bone marrow smears
  nonproliferating compartment of the myeloid series: reduction
  proliferating compartment of the myeloid series: significantly increased
